Target: thrombin (Homo sapiens, UniProt P00734)
Assay: Measurement of the thrombin inhibition in buffer
Assay type: biochemical
Details: human thrombin 0.06 nmol/l in Tris buffer pH 7.4, 22° C., substrate Boc-Asp(OBzl)-Pro-Arg-AMC; in some cases means of individual determinations
Protocol: To determine the thrombin inhibition of the substances listed above, a biochemical test system is constructed in which the conversion of a thrombin substrate is used for determining the enzymatic activity of human thrombin. Here, thrombin cleaves aminomethylcoumarin, which is measured fluorescently, from the peptic substrate. The determinations are carried out in microtitre plates.
Substances to be tested are dissolved in various concentrations in dimethyl sulphoxide and incubated for 15 min with human thrombin (0.06 nmol/l dissolved in 50 mmol/l of Tris buffer [C,C,C-tris(hydroxymethyl)aminomethane], 100 mmol/l of sodium chloride, 0.1% BSA [bovine serum albumin], pH 7.4) at 22° C. The substrate (5 μmol/l Boc-Asp(OBzl)-Pro-Arg-AMC from Bachem) is then added. After 30 min of incubation, the sample is excited at a wavelength of 360 nm and the emission is measured at 460 nm. The measured emissions of the test mixtures with test substance are compared to the control mixtures without test substance (only dimethyl sulphoxide instead of test substance in dimethyl sulphoxide) and IC50 values are calculated from the concentration/activity relationships. Representative activity data from this test are given in Table 1 below (in some cases as means of individual determinations): […]

Compound	IC50 [nM]
COc1cc(C(=O)N2CC(C)(C)OCC2CC(C)O)cn2nc(NCc3cccc(Cl)c3)nc12 (single isomer, unassigned) [Example 46, {2-[(3-Chlorobenzyl)amino]-8-methoxy[1,2,4]triazolo[1,5-a]pyridin-6-yl}[5-(2-hydroxypropyl)-2,2-dimethylmorpholin-4-yl]methanone]	190
COc1cc(C(=O)N2CC(C)(C)OCC2CC(C)O)cn2nc(NCc3cccc(Cl)c3)nc12 (single isomer, unassigned) [Example 47, {2-[(3-Chlorobenzyl)amino]-8-methoxy[1,2,4]triazolo[1,5-a]pyridin-6-yl}[5-(2-hydroxypropyl)-2,2-dimethylmorpholin-4-yl]methanone]	180
COc1cc(C(=O)N2CC(C)(C)OCC2CC(C)O)cn2nc(NCc3cccc(Cl)c3)nc12 (single isomer, unassigned) [Example 48, {2-[(3-Chlorobenzyl)amino]-8-methoxy[1,2,4]triazolo[1,5-a]pyridin-6-yl}[5-(2-hydroxypropyl)-2,2-dimethylmorpholin-4-yl]methanone]	39
COc1cc(C(=O)N2CC(C)(CCO)OCC2CF)cn2nc(NCc3cccc(Cl)c3)nc12 (single isomer, unassigned) [Example 51, {2-[(3-Chlorobenzyl)amino]-8-methoxy[1,2,4]triazolo[1,5-a]pyridin-6-yl}[5-(fluoromethyl)-2-(2-hydroxyethyl)-2-methylmorpholin-4-yl]methanone]	3500
COc1cc(C(=O)N2CC(C)(CCO)OCC2CF)cn2nc(NCc3cccc(Cl)c3)nc12 (single isomer, unassigned) [Example 52, {2-[(3-Chlorobenzyl)amino]-8-methoxy[1,2,4]triazolo[1,5-a]pyridin-6-yl}[5-(fluoromethyl)-2-(2-hydroxyethyl)-2-methylmorpholin-4-yl]methanone]	1200

Other lines, results leading:

IC50 [nM]	Compound
88	COc1cc(C(=O)N2CC(C)OCC2(C)C)cn2nc(NCc3cccc(Cl)c3)nc12 (racemic) [Example 26]
420	COc1cc(C(=O)N2CC(C)(C)OCC2CF)cn2nc(NCc3cccc(Cl)c3)nc12 (single isomer, unassigned) [Example 13, {2-[(3-Chlorobenzyl)amino]-8-methoxy[1,2,4]triazolo[1,5-a]pyridin-6-yl}[5-(fluoromethyl)-2,2-dimethylmorpholin-4-yl]methanone]
180	COc1cc(C(=O)N2CC(C)OCC2(C)C)cn2nc(NCc3cccc(Cl)c3)nc12 (single isomer, unassigned) [Example 28]
230	COc1cc(C(=O)N2CC(C)(CCO)OCC2(C)C)cn2nc(NCc3cccc(Cl)c3)nc12 (single isomer, unassigned) [Example 32, {2-[(3-Chlorobenzyl)amino]-8-methoxy[1,2,4]triazolo[1,5-a]pyridin-6-yl}[2-(2-hydroxyethyl)-2,5,5-trimethylmorpholin-4-yl]methanone]
2800	COc1cc(C(=O)N2CC(C)(CC(C)O)OCC2(C)C)cn2nc(NCc3cccc(Cl)c3)nc12 (single isomer, unassigned) [Example 38, {2-[(3-Chlorobenzyl)amino]-8-methoxy[1,2,4]triazolo[1,5-a]pyridin-6-yl}[2-(2-hydroxypropyl)-2,5,5-trimethylmorpholin-4-yl]methanone]
81	COc1cc(C(=O)N2CC(C)OCC2CC(C)(C)O)cn2nc(NCc3cccc(Cl)c3)nc12 (single isomer, unassigned) [Example 43, {2-[(3-Chlorobenzyl)amino]-8-methoxy[1,2,4]triazolo[1,5-a]pyridin-6-yl}[5-(2-hydroxy-2-methylpropyl)-2-methylmorpholin-4-yl]methanone]
29	COc1cc(C(=O)N2CC(C)OCC2CC(C)(C)O)cn2nc(NCc3cccc(Cl)c3)nc12 (single isomer, unassigned) [Example 44, {2-[(3-Chlorobenzyl)amino]-8-methoxy[1,2,4]triazolo[1,5-a]pyridin-6-yl}[5-(2-hydroxy-2-methylpropyl)-2-methylmorpholin-4-yl]methanone]

Reference: patent US20160108039A1, “TRIAZOLOPYRIDINES AS THROMBIN INHIBITORS FOR THE TREATMENT OF THROMBOEMBOLIC DISEASES” (BAYER PHARMA AKTIENGESELLSCHAFT, priority 2013, published 2016)
